This note sets out measurements from PMC5341070, “Small molecule inhibitors block Gas6-inducible TAM activation and tumorigenicity” (Scientific Reports, 2017).

Experiment [1] addresses T1, FLT3 (Homo sapiens, UniProt P36888).
T1 construct: kinase domain
Description: KINOMEscan profiling at […]. The class given is binding.

The next experiment addresses T2, RET (Homo sapiens, UniProt P07949).
T2 construct: kinase domain
The experiment in a line: KINOMEscan profiling at […]. The class given is binding.

For a further experiment, the target named is T3, Abl (Homo sapiens, UniProt P00519).
T3 construct: gene ABL1; kinase domain
T3 sequence (P00519 242-493 limits assumed): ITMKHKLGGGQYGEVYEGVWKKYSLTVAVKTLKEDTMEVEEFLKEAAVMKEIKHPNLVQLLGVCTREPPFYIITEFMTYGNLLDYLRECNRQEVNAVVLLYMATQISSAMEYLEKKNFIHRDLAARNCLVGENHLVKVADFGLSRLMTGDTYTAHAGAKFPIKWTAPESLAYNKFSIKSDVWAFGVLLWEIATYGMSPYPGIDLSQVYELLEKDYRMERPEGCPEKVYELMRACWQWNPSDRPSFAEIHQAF
The experiment in a line: KINOMEscan profiling at […]. The class given is binding.

Experiment [2] concerns the target T4, KIT (Homo sapiens, UniProt P10721).
Target sequence in this assay (P10721 589-937 limits assumed): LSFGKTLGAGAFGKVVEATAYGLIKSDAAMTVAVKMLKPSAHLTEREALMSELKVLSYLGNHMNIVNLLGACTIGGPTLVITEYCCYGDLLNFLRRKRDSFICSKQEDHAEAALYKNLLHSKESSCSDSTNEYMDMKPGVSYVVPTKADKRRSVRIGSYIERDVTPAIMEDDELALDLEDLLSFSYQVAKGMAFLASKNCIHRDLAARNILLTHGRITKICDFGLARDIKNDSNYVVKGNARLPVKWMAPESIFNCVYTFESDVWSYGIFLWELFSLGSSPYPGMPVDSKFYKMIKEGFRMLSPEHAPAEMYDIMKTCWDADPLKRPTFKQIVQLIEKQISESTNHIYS
Experiment [3] has as its target AXL (Homo sapiens, UniProt P30530). The experiment in a line: biochemical. Also noted: KINOMEscan (DiscoverX) competition binding screen of 97 human kinases, percent of control at 10 uM. Conditions: binding competition, % of control; binder. The protocol:
(§1) The KINOMEscan profiling of the inhibitors were performed as per directions by the manufacturer (DiscoverX) against a panel of human protein kinases.
Target sequence in this assay (P30530 whole entry): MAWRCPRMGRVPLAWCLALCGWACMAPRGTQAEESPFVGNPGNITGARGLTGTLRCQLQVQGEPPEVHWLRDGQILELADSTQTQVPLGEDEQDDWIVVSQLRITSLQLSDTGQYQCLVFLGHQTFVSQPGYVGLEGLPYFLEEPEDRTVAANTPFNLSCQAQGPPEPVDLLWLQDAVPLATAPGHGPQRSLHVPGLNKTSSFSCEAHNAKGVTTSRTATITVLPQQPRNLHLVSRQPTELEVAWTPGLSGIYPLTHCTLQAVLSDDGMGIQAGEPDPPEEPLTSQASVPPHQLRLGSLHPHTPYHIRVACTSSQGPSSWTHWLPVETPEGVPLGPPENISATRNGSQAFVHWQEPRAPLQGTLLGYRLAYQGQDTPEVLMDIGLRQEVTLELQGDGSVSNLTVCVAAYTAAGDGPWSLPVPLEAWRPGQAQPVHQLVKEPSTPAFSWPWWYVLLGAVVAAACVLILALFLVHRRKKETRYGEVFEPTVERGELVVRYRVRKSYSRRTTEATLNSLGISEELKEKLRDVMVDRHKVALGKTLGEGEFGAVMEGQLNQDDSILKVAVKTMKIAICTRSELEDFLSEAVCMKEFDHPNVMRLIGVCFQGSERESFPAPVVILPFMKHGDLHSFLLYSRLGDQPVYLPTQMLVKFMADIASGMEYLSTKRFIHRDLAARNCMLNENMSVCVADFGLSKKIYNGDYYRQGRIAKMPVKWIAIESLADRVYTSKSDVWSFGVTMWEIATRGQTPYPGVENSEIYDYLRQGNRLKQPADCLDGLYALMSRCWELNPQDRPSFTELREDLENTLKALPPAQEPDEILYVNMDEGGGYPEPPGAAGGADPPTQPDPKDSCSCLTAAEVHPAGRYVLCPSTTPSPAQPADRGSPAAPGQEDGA

The next experiment addresses VEGFR2 (Homo sapiens, UniProt P35968). Description: KINOMEscan profiling at […]. The class given is binding. Further details: gene KDR; kinase domain.
A further experiment has as its target TIE2 (Homo sapiens, UniProt Q02763). The experiment in a line: KINOMEscan profiling at […]. The class given is binding. Also noted: gene TEK; kinase domain.
The next experiment has as its target PDGFRB (Homo sapiens, UniProt P09619). Description: KINOMEscan profiling at […]. In kind it is binding. Also noted: gene PDGFRB; kinase domain.
The target in a further experiment is T5, ABL1-phosphorylated (Homo sapiens, UniProt P00519).
T5 construct: phosphorylated
T5 sequence (P00519 whole entry): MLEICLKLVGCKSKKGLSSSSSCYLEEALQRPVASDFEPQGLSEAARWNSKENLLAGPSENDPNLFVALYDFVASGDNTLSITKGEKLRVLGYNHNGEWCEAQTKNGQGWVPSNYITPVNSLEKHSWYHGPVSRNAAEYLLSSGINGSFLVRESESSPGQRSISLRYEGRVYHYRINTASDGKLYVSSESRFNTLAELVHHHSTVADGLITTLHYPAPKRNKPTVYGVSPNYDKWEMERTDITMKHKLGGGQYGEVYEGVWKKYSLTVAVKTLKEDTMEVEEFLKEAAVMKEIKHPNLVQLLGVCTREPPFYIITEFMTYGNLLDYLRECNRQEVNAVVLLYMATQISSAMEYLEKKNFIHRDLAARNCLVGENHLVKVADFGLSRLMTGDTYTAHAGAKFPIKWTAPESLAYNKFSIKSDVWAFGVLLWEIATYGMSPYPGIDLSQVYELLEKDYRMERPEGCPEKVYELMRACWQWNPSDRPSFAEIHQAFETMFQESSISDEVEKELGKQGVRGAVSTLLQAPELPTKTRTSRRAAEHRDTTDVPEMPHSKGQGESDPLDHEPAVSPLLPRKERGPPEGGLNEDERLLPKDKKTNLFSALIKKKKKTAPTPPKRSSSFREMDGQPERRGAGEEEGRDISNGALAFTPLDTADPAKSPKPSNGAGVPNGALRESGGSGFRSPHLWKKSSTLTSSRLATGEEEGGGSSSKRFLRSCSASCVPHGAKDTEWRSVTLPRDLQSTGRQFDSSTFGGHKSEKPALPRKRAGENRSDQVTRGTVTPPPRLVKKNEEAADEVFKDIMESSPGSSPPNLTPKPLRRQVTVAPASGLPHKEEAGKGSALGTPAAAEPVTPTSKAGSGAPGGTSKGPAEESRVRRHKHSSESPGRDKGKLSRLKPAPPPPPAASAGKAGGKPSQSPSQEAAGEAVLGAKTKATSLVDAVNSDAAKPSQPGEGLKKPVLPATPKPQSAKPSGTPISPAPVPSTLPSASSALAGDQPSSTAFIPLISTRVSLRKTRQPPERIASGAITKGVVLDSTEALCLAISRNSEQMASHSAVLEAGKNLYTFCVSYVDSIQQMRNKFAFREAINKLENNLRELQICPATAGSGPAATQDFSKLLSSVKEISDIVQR
The experiment in a line: biochemical. To be noted: binding competition, % of control; read-out: RU-301 %Ctrl @ 10000nM. Also noted: KINOMEscan (DiscoverX) competition binding screen of 97 human kinases, percent of control at 10 uM. The protocol: as §1

Experiment [4] concerns the target AXL (Homo sapiens, UniProt P30530). Description: biochemical. Further details: KINOMEscan (DiscoverX) competition binding screen of 97 human kinases, percent of control at 10 uM. To be noted: binding competition, % of control; read-out: RU-301 %Ctrl @ 10000nM. As for the experimental part:
as §1
Target sequence in this assay (P30530 whole entry): as the sequence (P30530 whole entry) above

In experiment [5] the target is FLT3 (Homo sapiens, UniProt P36888). Description: biochemical. To be noted: binding competition, % of control; read-out: RU-301 %Ctrl @ 10000nM. Also noted: KINOMEscan (DiscoverX) competition binding screen of 97 human kinases, percent of control at 10 uM. As for the experimental part: as §1
Target sequence in this assay (P36888 whole entry, the tested form may be a part): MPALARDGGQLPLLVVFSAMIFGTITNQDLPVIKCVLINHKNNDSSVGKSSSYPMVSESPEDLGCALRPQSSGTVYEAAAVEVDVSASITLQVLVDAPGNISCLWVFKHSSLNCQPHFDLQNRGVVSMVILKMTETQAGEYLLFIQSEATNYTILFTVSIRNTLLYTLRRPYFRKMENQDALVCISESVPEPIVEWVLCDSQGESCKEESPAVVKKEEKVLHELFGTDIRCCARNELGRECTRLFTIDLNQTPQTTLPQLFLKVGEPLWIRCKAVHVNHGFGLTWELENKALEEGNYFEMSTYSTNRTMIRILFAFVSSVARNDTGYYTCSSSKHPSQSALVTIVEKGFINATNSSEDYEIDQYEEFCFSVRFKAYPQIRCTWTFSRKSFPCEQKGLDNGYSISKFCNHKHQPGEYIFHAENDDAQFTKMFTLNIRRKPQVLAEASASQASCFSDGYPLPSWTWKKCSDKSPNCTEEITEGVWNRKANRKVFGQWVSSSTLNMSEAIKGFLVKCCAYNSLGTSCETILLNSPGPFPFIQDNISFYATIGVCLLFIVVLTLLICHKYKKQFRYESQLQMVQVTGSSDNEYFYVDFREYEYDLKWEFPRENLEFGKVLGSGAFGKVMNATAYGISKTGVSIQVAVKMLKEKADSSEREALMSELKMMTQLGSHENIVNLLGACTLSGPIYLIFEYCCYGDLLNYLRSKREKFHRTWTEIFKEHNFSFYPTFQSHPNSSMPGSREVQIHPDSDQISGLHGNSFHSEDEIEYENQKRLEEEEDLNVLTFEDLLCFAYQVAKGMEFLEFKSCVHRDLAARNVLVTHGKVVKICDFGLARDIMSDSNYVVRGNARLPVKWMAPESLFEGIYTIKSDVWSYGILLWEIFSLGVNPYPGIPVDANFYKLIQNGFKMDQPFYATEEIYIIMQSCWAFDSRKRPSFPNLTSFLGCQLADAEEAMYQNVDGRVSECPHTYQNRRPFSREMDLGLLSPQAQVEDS
For experiment [6], the target named is T4, KIT. Description: biochemical. Also noted: KINOMEscan (DiscoverX) competition binding screen of 97 human kinases, percent of control at 10 uM. To be noted: binding competition, % of control; read-out: RU-301 %Ctrl @ 10000nM. The protocol:
as §1

TIE2, sequence (Q02763 770-1124 limits assumed): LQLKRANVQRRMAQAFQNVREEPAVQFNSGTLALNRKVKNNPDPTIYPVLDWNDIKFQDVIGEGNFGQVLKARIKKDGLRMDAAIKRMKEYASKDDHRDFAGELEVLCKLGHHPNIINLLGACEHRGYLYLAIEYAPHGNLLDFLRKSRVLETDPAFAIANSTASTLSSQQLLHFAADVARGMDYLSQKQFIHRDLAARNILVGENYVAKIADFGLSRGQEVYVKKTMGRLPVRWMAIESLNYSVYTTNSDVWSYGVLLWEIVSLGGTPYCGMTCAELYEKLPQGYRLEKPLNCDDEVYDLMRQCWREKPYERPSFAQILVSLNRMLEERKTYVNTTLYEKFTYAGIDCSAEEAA
PDGFRB, sequence (P09619 600-962 limits assumed): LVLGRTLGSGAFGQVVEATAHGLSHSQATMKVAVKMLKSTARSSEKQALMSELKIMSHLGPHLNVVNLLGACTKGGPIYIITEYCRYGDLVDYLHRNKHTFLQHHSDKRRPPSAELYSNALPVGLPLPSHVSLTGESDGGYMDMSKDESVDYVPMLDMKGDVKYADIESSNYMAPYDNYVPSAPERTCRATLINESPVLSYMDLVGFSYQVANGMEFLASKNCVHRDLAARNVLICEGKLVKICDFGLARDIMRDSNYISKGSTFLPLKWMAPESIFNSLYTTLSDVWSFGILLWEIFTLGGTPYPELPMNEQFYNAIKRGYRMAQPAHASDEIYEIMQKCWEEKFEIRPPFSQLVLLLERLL
VEGFR2, sequence (P35968 789-1356 limits assumed): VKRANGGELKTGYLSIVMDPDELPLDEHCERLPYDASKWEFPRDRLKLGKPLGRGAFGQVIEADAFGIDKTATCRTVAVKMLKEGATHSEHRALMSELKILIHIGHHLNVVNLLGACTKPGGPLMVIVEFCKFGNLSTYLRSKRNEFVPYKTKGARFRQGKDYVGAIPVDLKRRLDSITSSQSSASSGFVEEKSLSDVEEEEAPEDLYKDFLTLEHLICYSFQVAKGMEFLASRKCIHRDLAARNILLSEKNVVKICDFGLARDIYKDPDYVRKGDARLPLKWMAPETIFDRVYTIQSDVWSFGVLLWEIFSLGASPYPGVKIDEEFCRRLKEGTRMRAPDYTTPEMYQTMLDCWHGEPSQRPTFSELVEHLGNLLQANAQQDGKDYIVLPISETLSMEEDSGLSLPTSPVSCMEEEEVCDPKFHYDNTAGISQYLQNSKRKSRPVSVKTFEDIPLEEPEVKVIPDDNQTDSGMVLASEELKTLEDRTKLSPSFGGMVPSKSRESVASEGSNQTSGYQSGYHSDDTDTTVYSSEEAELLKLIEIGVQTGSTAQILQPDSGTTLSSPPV

Regarding `Nc1nc(Nc2ccc3c(c2)CC[C@@H](N2CCCC2)CC3)nn1-c1cc2c(nn1)-c1ccccc1CCC2` [R428], the “KINOMEscan profiling at 10 uM” value at FLT3 [1] was “KIT, PDGFR A and B, RET, TIE2, VEGFR2, JAK2, JAK3 and FLT3 kinases”; on RET, “R428 also bound to several other kinases, including Abl, Aurora kinases, KIT, PDGFR A and B, RET”; at Abl it was “R428 also bound to several other kinases, including Abl, Aurora kinases, KIT”; at KIT [2], “R428 also bound to several other kinases, including Abl, Aurora kinases, KIT”; on VEGFR2, “KIT, PDGFR A and B, RET, TIE2, VEGFR2, JAK2, JAK3 and FLT3 kinases”; at TIE2, “KIT, PDGFR A and B, RET, TIE2, VEGFR2, JAK2, JAK3 and FLT3 kinases”. Also, the “KINOMEscan profiling at 10 uM” value on PDGFRB was “R428 also bound to several other kinases, including Abl, Aurora kinases, KIT, PDGFR A and B”. Besides, the “R428 %Ctrl @ 10000nM” value at AXL [3] is given as 0.1%.

Turning to `Cc1cc(CSc2ccccc2C(=O)NCCNc2ccc(C(F)(F)F)cc2[N+](=O)[O-])on1` [RU-301], the remaining binding at 10 µM at ABL1-phosphorylated was determined as 81%; on AXL [4] it was 89%; at FLT3 [5] it was 99%; at KIT [6], 96%.
